From ChEMBL document CHEMBL4229330, “Synthesis and evaluation of C2 functionalized analogs of the α-tubulin-binding natural product pironetin” (Bioorg Med Chem Lett, 2018)

Legend:
Assay type in all cases: cell-based
A2780 [1] = assay: Binding affinity to alpha tubulin in human A2780 cells assessed as disruption of tubulin polymerization by measuring reduction in cell proliferation after 48 hrs by CellTiter non-radioactive assay
Homo sapiens = species: Homo sapiens; assay: Binding affinity to alpha tubulin in human OVCAR5 cells assessed as disruption of tubulin polymerization by measuring reduction in cell proliferation after 48 hrs by CellTiter non-radioactive assay
A2780 [2] = assay: Binding affinity to alpha tubulin in human A2780 cells assessed as disruption of tubulin polymerization by measuring cell proliferation at higher concentration after 48 hrs by CellTiter non-radioactive assay relative to control

SMILES | GI50 (A2780 [1]) [nM] | GI50 (Homo sapiens) [nM] | Activity (A2780 [2]) [%]
C/C=C/C[C@H](C)[C@@H](OC)[C@@H](C)[C@H](O)C[C@H]1OC(=O)C(Cl)=C[C@H]1CC | 4480 | 1080 | 10 to 20
C/C=C/C[C@H](C)[C@@H](OC)[C@@H](C)[C@H](O)C[C@H]1OC(=O)C(c2ccccc2)=C[C@H]1CC | > 50000 | > 50000 | 10 to 20
C/C=C/C[C@H](C)[C@@H](OC)[C@@H](C)[C@H](O)C[C@H]1OC(=O)C(F)=C[C@H]1CC | 5110 | 3240 | 10 to 20
CC(=O)O[C@H]1C(=O)[C@@]2(C)[C@H]([C@H](OC(=O)c3ccccc3)[C@]3(O)C[C@H](OC(=O)[C@H](O)[C@@H](NC(=O)c4ccccc4)c4ccccc4)C(C)=C1C3(C)C)[C@]1(OC(C)=O)CO[C@@H]1C[C@@H]2O | 7.53 | 21 | 10 to 20
C/C=C/C[C@H](C)[C@@H](OC)[C@@H](C)[C@H](O)C[C@H]1OC(=O)C(Br)=C[C@H]1CC | 901 | 44.9 to 26200 | < 10
C/C=C/C[C@H](C)[C@@H](OC)[C@@H](C)[C@H](O)C[C@H]1OC(=O)C(C)=C[C@H]1CC | 10200 | 3360 | 10 to 20
C/C=C/C[C@H](C)[C@@H](OC)[C@@H](C)[C@H](O)C[C@H]1OC(=O)C=C[C@H]1CC | 24.3 | 14.4 | 10 to 20
